Structures can show the parent of a compound that is named as a salt. Where two headings read alike, the source gives them in different places.
Key:
[1] = acute toxicity, LD50 in the rat by oral or intraperitoneal route; conditions: in vivo
Text: the acute toxicity, expressed as LD50 in the rat by the oral or intraperitoneal route (A);

food intake in the rat [2] = experiment: anorectic activity, food intake in the rat; format: in vivo; conditions: 1 h, food taken during first hour, read-out: ID50 (B), dose inhibiting by 50% the food intake
Protocol: (§1) The anorectic activity was assessed by the method of the food intake in the rat. Female rats weighing 200 g are used, which were trained for 10 days to eat during a period of 4 hours and selected on the eighth day. At the end of the tenth day, the randomised animals were divided into a "control group" treated by the vehicle alone, and into several "treated groups". Treatment was effected by the intraperitoneal or oral route 30 minutes or 1 hour before presentation of the food and the quantity of food therefor taken during the first hour was then measured.
(§2) the anorectic activity, expressed as oral or intraperitoneal dose inhibiting by 50% the food intake (ID50, B);
(§3) the ratio between the acute toxicity and the anorectic activity which expresses the therapeutic index related to the acute toxocity (A/B).

[3] = anorectic activity, food intake in the rat; format: in vivo; conditions: in vivo, read-out: A/B, ratio acute toxicity to anorectic activity (therapeutic index)
Protocol: as §1, §2, §3

cerebral serotonin [4] = experiment: cerebral rates of serotonin after i.p. or oral administration (Curzon and Green); format: in vivo
Text: Table II hereinbelow summarises the cerebral rates of serotonin, in percentage with respect to the controls, after intraperitoneal or oral administration of four representative compounds of the present invention. The determination of the cerebral rates, according to Curzon and Green (Brit. J. Pharmacol. 39, 653, 1970) was effected one hour and/or two hours after administration. Fenfluramine was used as reference product.

food intake in the rat [5] = conditions: background; cited from earlier work
[6] = background; cited from earlier work
cerebral serotonin [7] = conditions: at doses very close to the anorectic dose; Arch. Intern. Pharmacodyn. Ther. 1967; cited from earlier work
[8] = molecular target: post-synaptic serotonin receptors; experiment: 3H-serotonin binding to rat cortex membranes (Peroutka and Snyder)
Protocol: The affinity of the compounds of the present invention for the post-synaptic serotinin receptors was determined according to the method of Peroutka and Snyder (Molec. Pharmacol. 1979, 16, 687-699) which consists in incubating rat cortex membranes with a fixed concentration of ^3 H-serotonin in the presence of different concentrations of product. […] Fenfluramine was used as reference compound.

[9] = i.p., 7.5 mg/kg, 2 hrs (fenfluramine: significant P < 0.01)

Compound | LD50 ([1]; ip) | ED50 (food intake in the rat [2]; ip, i.p.) | selectivity ratio ([3]; ip) | cerebral rates of serotonin (cerebral serotonin [4]; [9]) | cerebral rates of serotonin (cerebral serotonin [4]; i.p., 15.0 mg/kg, 2 hrs) | LD50 ([1]; oral) | ED50 (food intake in the rat [2]; oral) | selectivity ratio ([3]; oral) | other results
CC(=O)CN1CC=C(c2cccc(C(F)(F)F)c2)CC1.Cl [Example 5, 4-(3-trifluoromethylphenyl)-1-acetonyl-1,2,3,6-tetrahydropyridine hydrochloride] | 165 mg/kg | 10.8 mg/kg | 15.3 | – | – | – | – | – | –
Cl.FC(F)(F)c1cccc(C2=CCN(CC3CC3)CC2)c1 [Example 7, 4-(3-trifluoromethylphenyl)-1-cyclopropylmethyl-1,2,3,6-tetrahydropyridine hydrochloride] | 135 mg/kg | 5.5 mg/kg | 24.6 | 123 % with respect to controls | 119 % with respect to controls | – | – | – | cerebral rates of serotonin (cerebral serotonin [4]; i.p., 3.25 mg/kg, 2 hrs): 111 % with respect to controls
CC(=O)CCN1CC=C(c2cccc(C(F)(F)F)c2)CC1.Cl [Example 6, 4-(3-trifluoromethylphenyl)-1-(3-oxobutyl)-1,2,3,6-tetrahydropyridine hydrochloride] | 134 mg/kg | 6.5 mg/kg | 20.6 | 108 % with respect to controls | 116 % with respect to controls | 299 mg/kg | 11.8 mg/kg | 25.3 | cerebral rates of serotonin (cerebral serotonin [4]; i.p., 3.25 mg/kg, 2 hrs): 109 % with respect to controls
CCNC(C)Cc1cccc(C(F)(F)F)c1 (centres unmarked) [fenfluramine, reference compound] | – | 5.4 mg/kg | 15.8 | 53.1 % with respect to controls | – | – | 4 mg/kg | 25.1 | anorectic activity (in words) (food intake in the rat [5]): excellent anorectic activity; sedative or stimulant action (in words) [6]: instead of being stimulant, has a certain sedative action; cerebral rates of serotonin (cerebral serotonin [4]; i.p., 5 mg/kg, 1 hr, significant P < 0.05): 82.9 % with respect to controls; cerebral rates of serotonin (cerebral serotonin [4]; i.p., 7.5 mg/kg, 1 hr, significant P < 0.05): 81.6 % with respect to controls; cerebral rates of serotonin (cerebral serotonin [4]; i.p., 10 mg/kg, 1 hr, significant P < 0.01): 79.0 % with respect to controls; effect on cerebral rates of serotonin (in words) (cerebral serotonin [4]; in vivo): induces a significant reduction of cerebral serotonin; effect on cerebral rates of serotonin (in words) (cerebral serotonin [7]): induces a significant reduction in the cerebral rates of serotonin; IC50 [8]: > 10 µM
Cl.N#CCCN1CC=C(c2cccc(C(F)(F)F)c2)CC1 [Example 2, 4-(3-trifluoromethylphenyl)-1-(2-cyanoethyl)-1,2,3,6-tetrahydropyridine hydrochloride] | 206 mg/kg | 12 mg/kg | 17.1 | 128 % with respect to controls | 146 % with respect to controls | 254 mg/kg | 9.5 mg/kg | 26.7 | cerebral rates of serotonin (cerebral serotonin [4]; i.p., 15.0 mg/kg, 1 hr): 131.0 % with respect to controls; cerebral rates of serotonin (cerebral serotonin [4]; i.p., 30.0 mg/kg, 2 hrs): 146 % with respect to controls
Cl.FC(F)(F)c1cccc(C2=CCN(CCC3CCCCC3)CC2)c1 [Example 10, 4-(3-trifluoromethylphenyl)-1-(2-cyclohexylethyl)-1,2,3,6-tetrahydropyridine hydrochloride] | – | – | – | – | – | 488 mg/kg | 2.6 mg/kg | 188 | cerebral rates of serotonin (cerebral serotonin [4]; oral, 1.25 mg/kg, 2 hrs): 99 % with respect to controls; cerebral rates of serotonin (cerebral serotonin [4]; oral, 2.5 mg/kg, 2 hrs): 95 % with respect to controls; cerebral rates of serotonin (cerebral serotonin [4]; oral, 5 mg/kg, 2 hrs): 101 % with respect to controls
Cl.N#CCCCN1CC=C(c2cccc(C(F)(F)F)c2)CC1 [Example 3, 4-(3-trifluoromethylphenyl)-1-(3-cyanopropyl)-1,2,3,6-tetrahydropyridine hydrochloride] | 258 mg/kg | 11.1 mg/kg | 23.3 | – | – | 538 mg/kg | 11.7 mg/kg | 46 | –
N#CCCCCN1CC=C(c2cccc(C(F)(F)F)c2)CC1 [Example 4, 4-(3-trifluoromethylphenyl-1-(4-cyanobutyl)-1,2,3,6-tetrahydropyridine hydrochloride] | – | – | – | – | – | 336 mg/kg | 10.5 mg/kg | 32 | –
